Assay results taken from patent US11945881B2, “Neoantigens expressed in ovarian cancer and their uses” (Janssen Biotech, Inc., priority 2020, dated 2024).

Key:
CD8+ T cells = experiment: exogenous autologous normal donor restimulation assay, TNFα/IFNγ double positive CD8+ T cells by flow cytometry; type: cell-based, human; conditions: for Fold change (CD8+) vs. DMSO: maximum CD8+ T-cell response (TNFα and IFNγ); for Fold change (CD8+) vs. DMSO / Frequency (TNFα + IFNγ + CD8 T cells): donor independent, peptide pool 10 μg/mL, healthy donors; for Frequency (TNFα + IFNγ + CD8 T cells): maximum CD8+ T-cell response; for Immunogenic (yes/no): positive if CD8+ and/or CD4+ double positive TNFα/IFNγ frequency >=3-fold over DMSO and at least 0.01%
Protocol: (§1) The immunogenicity of neoantigens was assessed using the exogenous autologous normal donor restimulation assay. […] The lyophilized peptides were solubilized in 100% DMSO.
(§2) CD1c+ Dendritic Cells (CD1c+DC) isolated from human healthy PBMCs were thawed using media (IMDM (Gibco) supplemented with glutamine, HEPES, 5% human serum (Sigma), and 1× Pen-Strep). DC cells were resuspended in media supplemented with IL-4 (Peprotech, 20 ng/mL) and GM-CSF (Gibco, 20 ng/mL), plated in 6 well microplates, and rested overnight at 37° C. and 5% CO2 incubator. The following day, DC cells were counted and plated in a 96 well round bottom microplate at a concentration of 30,000 viable cells per well. Lyophilized neoantigen peptide pools (15-mer peptides with 8-mer overlapping peptide sequences) were solubilized in 100% DMSO with a stock concentration of 20 mg/mL Neoantigen peptides pools were added to DCs for a final concentration of 10 μg/mL and rested for 2 hours at 37° C. and 5% CO2 incubator. CEF Peptide Pool “Plus” (Cellular Technologies, Ltd.) was utilized as a positive control (each viral peptide at a final concentration of 4 ug/ml) and DMSO at the same final concentration (0.05%) as the experimental peptides was utilized as a negative control. After 2 hours, DC cells were irradiated with 50 gray of ionizing radiation. Autologous CD3+ Pan-T cells isolated from human normal PBMCs were thawed using media. Following irradiation, autologous Pan-T cells were added to the irradiated DCs at 300,000 viable cells per well. Human IL-15 (Peprotech) was added to all wells at final concentration of 10 ng/ml. Plates were incubated at 37° C. and 5% CO2 incubator for a total of 12 days. Media was refreshed every 2-3 days with IL-15 (R&D System, 10 ng/mL final concentration) and IL-2 (R&D systems, 10 IU/mL final concentration).
(§3) On Day 11, cells were re-stimulated with identical experimental peptide pools or controls, at same concentration as peptide stimulation on Day 1. Protein Inhibitor Cocktail (eBioscience) was added to every well and plate was incubated overnight for 14-16 hours at 37° C. and 5% CO2 incubator. On Day 12, cells were stained for surface and intracellular flow cytometry analysis. The cells were washed with PBS and stained with Live/Dead Fixable Aqua Dead Cell stain (Thermo-Fisher). Following the live/dead stain, cells were blocked using Biotin-Fre Fc Receptor Blocker (Accurate Chemical & Scientific Corp). Extracellular cellular flow panel ([…] per well in 50 μL) consisted of CD3 PerCP-Cy5.5 (Biolegend), CD4 BV421 (Biolegend), and CD8 APC-Cy7 (Biolegend). After extracellular staining, cells were fixed and permeabilized using Foxp3/Transcription Factor Staining Buffer Set (eBioscience) and stained for intracellular proteins (1:50 dilution) using TNFα FITC (R&D Systems) and IFNγ BV785 (Biolegend). Cells were washed and resuspended in stain buffer, analyzed, and recorded in a BD Celesta flow cytometer.
(§4) Flow cytometry analysis was conducted on FlowJo v10.6 software. Cells were gated on live, singlet, CD3+, CD4+ and CD8+ T cells. The CD8+ and CD4+ T cells were analyzed for TNFα and IFNγ expression.
(§5) The immunogenicity of neoantigens was first investigated in 9-16 healthy donors.

CD4+ T cells = experiment: exogenous autologous normal donor restimulation assay, TNFα/IFNγ double positive CD4+ T cells by flow cytometry; type: cell-based, human; conditions: donor independent, peptide pool 10 μg/mL, healthy donors; for Fold change (CD4+) vs. DMSO: maximum CD4+ T-cell response (TNFα and IFNγ); for Frequency (TNFα + IFNγ + CD4 T cells): maximum CD4+ T-cell response
Protocol: as §1, §2, §3, §4, §5

| Sequence | Fold change (CD8+) vs. DMSO (CD8+ T cells) [fold] | Frequency (TNFα + IFNγ + CD8 T cells) (CD8+ T cells) [%] | Immunogenic (yes/no) (CD8+ T cells) | Fold change (CD4+) vs. DMSO (CD4+ T cells) [fold] | Frequency (TNFα + IFNγ + CD4 T cells) (CD4+ T cells) [%] |
| --- | --- | --- | --- | --- | --- |
| QHLQQEACVTSAGKQS [AS19, neoantigen, alternative splicing of PLEKHG4B] | 182.29 | 0.7 | Yes | 5.69 | 0.06 |
| LSPGGACVDIDECDRQ [AS81, neoantigen, alternative splicing of FBN3] | 10.83 | 0.1 | Yes | 3.22 | 0.028 |
| GFILIGWGAGNLVLETSSGFIKHRS [AS69, neoantigen, alternative splicing of PTH2R] | 260.42 | 1 | Yes | 9.21 | 0.011 |
| SRRLKLAQGRLRGLERLHSPQPFLQPMLPQGAQGPCKAPGQGQLLGGRREPDPS [AS14, neoantigen, alternative splicing of FOXH1] | 257.47 | 5.6 | Yes | 59.26 | 0.12 |
| IPPHLQWESTRQTEWISVREFHLESSLYP [AS61, neoantigen, alternative splicing of IGF2BP3] | 4.86 | 0.13 | Yes | 4.26 | 0.038 |
| PSPSTPNHSQQAICHPGRRP [AS105, neoantigen, alternative splicing of MPRIP] | 1.76 | 0.02 | Yes | 14.72 | 0.14 |
| RSSGLTTSSEYSTHVHMPLILHQAEQELLLLINP [AS141, neoantigen, alternative splicing of MUC16] | 3.82 | 0.041 | Yes | 6.94 | 0.045 |
| FKIPKFSIVLSSNSAFRCDPLSSRPRCFGGSLEAP [AS27, neoantigen, alternative splicing of GTSE1] | 108.36 | 0.35 | Yes | 31.11 | 0.063 |
| RRHGEVQGLLEREKTARGNPSG [AS72, neoantigen, alternative splicing of SMC1B] | 8.6 | 0.23 | Yes | 4.15 | 0.036 |
| GTMEVKSKKKQTTVPLVQTR [AS67, neoantigen, alternative splicing of PARD6B] | 6.36 | 0.17 | Yes | 3.15 | 0.028 |
| PSSLPGPTGKYQSMVFGAWLMSVNISVYTLLEHG [AS140, neoantigen, alternative splicing of MUC16] | 115.04 | 0.22 | Yes | 79.1 | 0.14 |
| APSCGVSRAICDRGCH [AS79, neoantigen, alternative splicing of FBN3] | 2.88 | 0.076 | Yes | 5.85 | 0.12 |
| IGKGSFGKFLEDATHMV [AS36, neoantigen, alternative splicing of STK32C] | 7.44 | 0.45 | Yes | 3.36 | 0.04 |
| RLDDSGIGNFITSLLNFISKFFCSFMGA [AS99, neoantigen, alternative splicing of FAM221A] | 160.85 | 1.43 | Yes | 4 | 0.077 |
| RGGRGAQENSLD [FUS10, neoantigen, gene fusion SCNN1A->TNFRSF1A] | 896.55 | 19.5 | yes | 20.13 | 0.072 |
| APILAAIGIGRLLCMDKIPATASLTP [FUS3, neoantigen, gene fusion PTH2R->LOC101927960] | 158.8 | 0.74 | yes | 5.02 | 0.025 |
| TRSLDDLEKLDTLCCKLSVHVT [AS33, neoantigen, alternative splicing of RGS12] | 6958.6 | 43.7 | Yes | 32.24 | 0.28 |
| LEEEFISEWRRCLLCSYLQW [AS63, neoantigen, alternative splicing of IMPG2] | 185.74 | 0.5 | Yes | 13.54 | 0.15 |
| NIEDVATEDGRHGGCHHGPGR [AS71, neoantigen, alternative splicing of SLC6A2] | 11.78 | 0.074 | Yes | 10.95 | 0.038 |
